Measured values published in the supplement of paper PMC10307832.

Tests used:
Assay in all cases: relative viability (nuclei count vs DMSO), 5 days (fraction); higher = more cells survive
Trametinib + Linsitinib = compound: CC(=O)Nc1cccc(-n2c(=O)n(C3CC3)c(=O)c3c(Nc4ccc(I)cc4F)n(C)c(=O)c(C)c32)c1 [Trametinib] + C[C@]1(O)C[C@@H](c2nc(-c3ccc4ccc(-c5ccccc5)nc4c3)c3c(N)nccn32)C1 [Linsitinib] (partner 1 µM)
How it was run: (§1)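 A single step with final 0.05% Triton X-100, 1% formaldehyde and 1 ug/ml Hoechst fixed the cells and stained nuclei 5 days after treatment. Lung cancer cell lines in 1536-well plates had been treated by pin tool the day after seeding with one drug alone or a fixed anchor-drug dose plus five library-drug doses (not always all listed) in √10 steps, and nuclei were counted on 4× images. Relative viability is the ratio of nuclei in treated wells to nuclei in vehicle wells, taken as the median of duplicate plates.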

Trametinib + Foretinib = compound: CC(=O)Nc1cccc(-n2c(=O)n(C3CC3)c(=O)c3c(Nc4ccc(I)cc4F)n(C)c(=O)c(C)c32)c1 [Trametinib] + COc1cc2c(Oc3ccc(NC(=O)C4(C(=O)Nc5ccc(F)cc5)CC4)cc3F)ccnc2cc1OCCCN1CCOCC1 [Foretinib] (partner 0.25 µM)
How it was run: as §1

Trametinib + Decitabine = compound: CC(=O)Nc1cccc(-n2c(=O)n(C3CC3)c(=O)c3c(Nc4ccc(I)cc4F)n(C)c(=O)c(C)c32)c1 [Trametinib] + Nc1ncn([C@H]2C[C@H](O)[C@@H](CO)O2)c(=O)n1 [Decitabine] (partner 2 µM)
How it was run: as §1

Trametinib + Crizotinib = compound: CC(=O)Nc1cccc(-n2c(=O)n(C3CC3)c(=O)c3c(Nc4ccc(I)cc4F)n(C)c(=O)c(C)c32)c1 [Trametinib] + C[C@@H](Oc1cc(-c2cnn(C3CCNCC3)c2)cnc1N)c1c(Cl)ccc(F)c1Cl [Crizotinib] (partner 1 µM)
How it was run: as §1

Cell Line | relative viability (Trametinib + Linsitinib; first compound 0.0025 µM) | relative viability (Trametinib + Linsitinib; first compound 0.007906 µM) | relative viability (Trametinib + Linsitinib; first compound 0.025 µM) | relative viability (Trametinib + Linsitinib; first compound 0.07906 µM) | relative viability (Trametinib + Linsitinib; first compound 0.25 µM) | relative viability (Trametinib + Foretinib; first compound 0.0025 µM) | relative viability (Trametinib + Foretinib; first compound 0.007906 µM) | relative viability (Trametinib + Foretinib; first compound 0.025 µM) | relative viability (Trametinib + Foretinib; first compound 0.07906 µM) | relative viability (Trametinib + Foretinib; first compound 0.25 µM) | relative viability (Trametinib + Decitabine; first compound 0.0025 µM) | relative viability (Trametinib + Decitabine; first compound 0.007906 µM) | relative viability (Trametinib + Decitabine; first compound 0.025 µM) | relative viability (Trametinib + Decitabine; first compound 0.07906 µM) | relative viability (Trametinib + Decitabine; first compound 0.25 µM) | relative viability (Trametinib + Crizotinib; first compound 0.0025 µM) | relative viability (Trametinib + Crizotinib; first compound 0.007906 µM) | relative viability (Trametinib + Crizotinib; first compound 0.025 µM) | relative viability (Trametinib + Crizotinib; first compound 0.07906 µM) | relative viability (Trametinib + Crizotinib; first compound 0.25 µM)
NCI-H2023 | 0.549 | 0.47 | 0.45 | 0.424 | 0.217 | 0.795 | 0.472 | 0.497 | 0.35 | 0.302 | 0.211 | 0.187 | 0.237 | 0.207 | 0.154 | 0.597 | 0.543 | 0.475 | 0.442 | 0.247
Calu-6 | 0.951 | 0.719 | 0.35 | 0.15 | 0.124 | 0.835 | 0.503 | 0.418 | 0.12 | 0.131 |  |  |  |  |  | 0.737 | 0.557 | 0.398 | 0.168 | 0.107
SW 900 |  |  |  |  |  | 0.79 | 0.669 | 0.708 | 0.698 | 0.499 | 0.396 | 0.335 | 0.388 | 0.491 | 0.39 |  |  |  |  | 
HOP-62 | 1.06 | 0.921 | 0.705 | 0.487 | 0.152 | 1.04 | 0.948 | 0.623 | 0.341 | 0.252 | 0.199 | 0.229 | 0.252 | 0.235 | 0.227 | 0.925 | 0.932 | 0.581 | 0.502 | 0.209
H3255 | 1.02 | 0.822 | 0.795 | 0.855 | 0.575 | 0.794 | 0.857 | 0.501 | 0.728 | 0.509 | 0.552 | 0.572 | 0.487 | 0.518 | 0.378 | 0.845 | 0.931 | 0.799 | 0.715 | 0.48
NCI-H1734 | 0.845 | 0.739 |  | 0.788 | 0.613 | 0.968 | 0.781 | 0.582 | 0.607 | 0.446 | 0.508 | 0.438 |  | 0.426 | 0.453 | 0.644 | 0.622 |  | 0.493 | 0.285
SK-MES-1 | 1.02 | 0.938 | 0.779 | 0.505 | 0.338 | 0.913 | 0.476 | 0.638 | 0.566 | 0.347 | 0.381 | 0.304 | 0.341 | 0.247 | 0.273 | 0.997 | 0.991 | 0.792 | 0.543 | 0.334
NCI-H1792 | 0.489 | 0.39 | 0.363 | 0.234 | 0.164 |  |  |  |  |  | 0.436 | 0.443 | 0.318 | 0.364 | 0.291 | 0.92 | 0.949 | 0.738 | 0.553 | 0.488
EKVX | 0.875 | 0.757 | 0.767 | 0.632 | 0.282 | 0.809 | 0.724 | 0.332 | 0.379 | 0.838 | 0.36 | 0.351 | 0.326 | 0.372 | 0.222 | 0.779 | 0.778 | 0.765 | 0.564 | 0.4
EPLC-272H | 1.23 | 0.89 | 0.471 | 0.659 | 0.489 | 0.476 | 0.384 | 0.26 | 0.237 | 0.14 | 0.357 | 0.324 | 0.326 | 0.336 | 0.293 | 0.825 | 0.672 | 0.538 | 0.599 | 0.377
LK-2 | 0.553 | 0.44 | 0.604 | 0.304 | 0.469 | 1.07 | 1.19 | 1.11 | 1.2 | 0.859 | 0.309 | 0.259 | 0.181 | 0.18 | 0.147 | 0.283 | 0.217 | 0.226 | 0.299 | 0.241
CAL-12T | 0.79 | 0.607 | 0.484 | 0.428 | 0.341 | 0.969 | 0.893 | 0.716 | 0.499 | 0.489 |  |  |  |  |  | 0.651 | 0.853 | 0.434 | 0.367 | 0.213
NCI-H322M | 0.896 | 0.664 | 0.601 | 0.519 | 0.459 | 0.813 | 0.769 | 0.677 | 0.59 | 0.498 | 0.691 | 0.681 | 0.631 | 0.585 | 0.566 | 0.943 | 0.986 | 0.686 | 0.697 | 1.04
NCI-H1650 |  |  |  |  |  | 1.18 | 0.857 | 0.894 | 0.838 | 0.506 | 0.39 | 0.467 | 0.369 | 0.399 | 0.206 | 1.04 | 0.779 | 0.795 | 0.69 | 0.302
NCI-H2342 |  |  |  |  |  | 1.05 | 0.911 |  | 0.908 | 0.997 | 0.775 | 0.69 | 0.646 | 0.673 | 0.637 |  |  |  |  | 
SW 1573 | 0.847 | 0.602 | 0.654 | 0.487 | 0.449 | 0.876 | 0.723 | 0.616 | 0.513 | 0.152 | 0.393 | 0.37 | 0.317 | 0.308 | 0.181 | 0.781 | 0.603 | 0.601 | 0.518 | 0.462
NCI-H2405 | 0.577 | 0.486 | 0.382 | 0.362 | 0.349 | 1.08 | 0.874 | 0.903 | 0.72 | 0.563 | 0.777 | 0.66 | 0.586 |  | 0.544 | 0.864 | 0.836 | 0.685 | 0.561 | 0.521
LCLC-103H | 0.968 | 0.897 | 0.746 | 0.904 | 0.933 | 0.745 | 0.637 | 0.537 | 0.621 | 0.429 | 0.754 | 0.68 | 0.692 | 0.689 | 0.596 | 0.938 | 1.07 | 0.799 | 0.756 | 0.76
